In PMC6999911, “New 2-Ethylthio-4-methylaminoquinazoline derivatives inhibiting two subunits of cytochrome bc1 in Mycobacterium tuberculosis” (PLoS Pathogens, 2020):

Legend:
Format in all cases: cell-based, Mycobacterium tuberculosis
QuinR mutant strains = system: QuinR mutant strains
H37Rv-Rv1777(R145S) = system: H37Rv-Rv1777(R145S)
[1] = system: QuinR-M1 (QcrA Leu356Val)
[2] = system: QuinR-M2 (QcrB Trp312Gly)
[3] = system: QuinR-M3 (QcrB Gly175Ser)
[4] = system: complemented mutant (ΔcydAB)
M. tb H37Rv ΔcydKO A317V = system: M. tb H37Rv ΔcydKO A317V

| Compound | ATP depletion in QuinR mutants (QuinR mutant strains) | fold change in the MIC, H37Rv-Rv1777(R145S) (H37Rv-Rv1777(R145S)) [fold] | fold-change MIC compared to H37Rv (QuinR-M1) [1] [fold-change] | fold-change MIC compared to H37Rv (QuinR-M2) [2] [fold-change] | fold-change MIC compared to H37Rv (QuinR-M3) [3] [fold-change] | static or cidal activity by CFU enumeration [4] | basal respiration after compound addition (M. tb H37Rv ΔcydKO A317V) |
| --- | --- | --- | --- | --- | --- | --- | --- |
| COc1nc2ccc(Br)cc2cc1[C@@H](c1ccccc1)[C@@](O)(CCN(C)C)c1cccc2ccccc12 [BDQ] | Significant ATP depletion |  |  |  |  |  |  |
| CCSc1nc(NC)c2ccccc2n1 [Compound 11626141] |  | ≤ 3 | 59 | 1489 | 92 |  |  |
| CCNc1nc(SCC)nc2ccccc12 [Compound 11626142] |  | ≤ 3 | 39 | 1111 | 34 |  |  |
| CCSc1nc(NC)c2cccc(F)c2n1 [Compound 11626252] | low-level ATP depletion | ≤ 3 | 25 | 1470 | 61 | bacteriostatic effect is restored | did not cause a deviation in basal respiration |
| CCSc1nc(NC)c2ccc(F)c(F)c2n1 [Compound 11726148] |  |  | 100 | 224 | 142 |  |  |
| CCc1nc2ccc(Cl)cn2c1C(=O)NCc1ccc(N2CCC(c3ccc(OC(F)(F)F)cc3)CC2)cc1 [Compound Q203, Telacebec, reference compound] | Significant ATP depletion |  | 669 | 742 | 191 |  |  |
| Cc1c(OCC(F)(F)F)ccnc1CSc1nc2ccccc2[nH]1 [LPZs, lansoprazole sulfide, reference compound] |  |  | > 71 | > 71 | 1 |  |  |
